# Experimental data published in ChEMBL document CHEMBL3885861, “Open TG-GATES”.
# Species: Rattus norvegicus
# Experiment: Open TG-GATES - Regimen: Daily Repeat
# Format: toxicity, organism-based, Sprague-Dawley
# Parameters: regimen Daily Repeat, gender Male, age 6 weeks
# Details: in vivo, po, 150 mg/kg, route gavage, dose level Middle; for APTT / Bas / Eos / Fbg / Hb / Ht / Lym / MCH / MCHC / MCV / Mono / Neu / PT / Plat / RBC / Ret / WBC: tissue Blood; for KIDNEY_L / KIDNEY_R / KIDNEY_TOTAL: tissue Kidney; for LIVER: tissue Liver; for A/G / ALP / ALT / AST / BUN / CRE / Ca / Cl / DBIL / GLC / IP / K / LDH / Na / PL / RALB / TBIL / TC / TG / TP / gamma-GTP: tissue Plasma
smiles,measurement,setting,value
CN1C(=O)OC(C)(C)C1=O [TRIMETHADIONE],TERMINAL_BW,"72 h, time 3 day",237.3 g
same,APTT,"72 h, time 3 day",16.6 s
same,Bas,"72 h, time 3 day",0%
same,Eos,"72 h, time 3 day",1.2%
same,Fbg,"72 h, time 3 day",277.6 mg/dL
same,Hb,"72 h, time 3 day",13.9 g/dL
same,Ht,"72 h, time 3 day",41.2%
same,Lym,"72 h, time 3 day",73.4%
same,MCH,"72 h, time 3 day",22 pg
same,MCHC,"72 h, time 3 day",33.7%
same,MCV,"72 h, time 3 day",65.2 fL
same,Mono,"72 h, time 3 day",2.8%
same,Neu,"72 h, time 3 day",22.6%
same,PT,"72 h, time 3 day",13 s
same,Plat,"72 h, time 3 day",127.9 x10_4/uL
same,RBC,"72 h, time 3 day",632 x10_4/ul
same,Ret,"72 h, time 3 day",6.9%
same,WBC,"72 h, time 3 day",82.5 x10_2/uL
same,KIDNEY_L,"72 h, time 3 day",1 g
same,KIDNEY_R,"72 h, time 3 day",0.9 g
same,KIDNEY_TOTAL,"72 h, time 3 day",1.9 g
same,LIVER,"72 h, time 3 day",11.2 g
same,A/G,"72 h, time 3 day",0.8
same,ALP,"72 h, time 3 day",1577 IU/L
same,ALT,"72 h, time 3 day",42.4 IU/L
same,AST,"72 h, time 3 day",78.2 IU/L
same,BUN,"72 h, time 3 day",17.2 mg/dL
same,CRE,"72 h, time 3 day",0.2 mg/dL
same,Ca,"72 h, time 3 day",11.2 mg/dL
same,Cl,"72 h, time 3 day",105 meq/L
same,DBIL,"72 h, time 3 day",0.004 mg/dL
same,GLC,"72 h, time 3 day",180.6 mg/dL
same,IP,"72 h, time 3 day",6.9 mg/dL
same,K,"72 h, time 3 day",4.4 meq/L
same,LDH,"72 h, time 3 day",85.6 IU/L
same,Na,"72 h, time 3 day",142.2 meq/L
same,PL,"72 h, time 3 day",172.8 mg/dL
same,RALB,"72 h, time 3 day",2.6 g/dL
same,TBIL,"72 h, time 3 day",0.042 mg/dL
same,TC,"72 h, time 3 day",91.4 mg/dL
same,TG,"72 h, time 3 day",115.6 mg/dL
same,TP,"72 h, time 3 day",5.7 g/dL
same,gamma-GTP,"72 h, time 3 day",1 IU/L
same,TERMINAL_BW,"[…], time 7 day",275.1 g
same,TERMINAL_BW,"[…], time 14 day",335.8 g
same,TERMINAL_BW,"[…], time 28 day",410.9 g
same,APTT,"[…], time 7 day",22.2 s
same,Bas,"[…], time 7 day",0%
same,Eos,"[…], time 7 day",1%
same,Fbg,"[…], time 7 day",283.8 mg/dL
same,Hb,"[…], time 7 day",13.8 g/dL
same,Ht,"[…], time 7 day",40.4%
same,Lym,"[…], time 7 day",75%
same,MCH,"[…], time 7 day",21.5 pg
same,MCHC,"[…], time 7 day",34.1%
same,MCV,"[…], time 7 day",62.9 fL
same,Mono,"[…], time 7 day",2.6%
same,Neu,"[…], time 7 day",21.2%
same,PT,"[…], time 7 day",13.9 s
same,Plat,"[…], time 7 day",129.5 x10_4/uL
same,RBC,"[…], time 7 day",642.6 x10_4/ul
same,Ret,"[…], time 7 day",5.6%
same,WBC,"[…], time 7 day",92.5 x10_2/uL
same,APTT,"[…], time 14 day",25.9 s
same,Bas,"[…], time 14 day",0.2%
same,Eos,"[…], time 14 day",1%
same,Fbg,"[…], time 14 day",268.4 mg/dL
same,Hb,"[…], time 14 day",14.4 g/dL
same,Ht,"[…], time 14 day",41.6%
same,Lym,"[…], time 14 day",71.6%
same,MCH,"[…], time 14 day",20.8 pg
same,MCHC,"[…], time 14 day",34.6%
same,MCV,"[…], time 14 day",60.2 fL
same,Mono,"[…], time 14 day",2.2%
same,Neu,"[…], time 14 day",24.6%
same,PT,"[…], time 14 day",13.6 s
same,Plat,"[…], time 14 day",123.5 x10_4/uL
same,RBC,"[…], time 14 day",691.2 x10_4/ul
same,Ret,"[…], time 14 day",4.5%
same,WBC,"[…], time 14 day",132.8 x10_2/uL
same,APTT,"[…], time 28 day",21.9 s
same,Bas,"[…], time 28 day",0%
same,Eos,"[…], time 28 day",1.2%
same,Fbg,"[…], time 28 day",270.8 mg/dL
same,Hb,"[…], time 28 day",15.8 g/dL
same,Ht,"[…], time 28 day",45%
same,Lym,"[…], time 28 day",74.8%
same,MCH,"[…], time 28 day",19.6 pg
same,MCHC,"[…], time 28 day",35%
same,MCV,"[…], time 28 day",56.2 fL
same,Mono,"[…], time 28 day",2%
same,Neu,"[…], time 28 day",21.8%
same,PT,"[…], time 28 day",14.3 s
same,Plat,"[…], time 28 day",113.7 x10_4/uL
same,RBC,"[…], time 28 day",800.2 x10_4/ul
same,Ret,"[…], time 28 day",2%
same,WBC,"[…], time 28 day",103.2 x10_2/uL
same,KIDNEY_L,"[…], time 7 day",1.3 g
same,KIDNEY_R,"[…], time 7 day",1.2 g
same,KIDNEY_TOTAL,"[…], time 7 day",2.5 g
same,KIDNEY_L,"[…], time 14 day",1.4 g
same,KIDNEY_R,"[…], time 14 day",1.4 g
same,KIDNEY_TOTAL,"[…], time 14 day",2.8 g
same,KIDNEY_L,"[…], time 28 day",1.6 g
same,KIDNEY_R,"[…], time 28 day",1.7 g
same,KIDNEY_TOTAL,"[…], time 28 day",3.3 g
same,LIVER,"[…], time 7 day",13 g
same,LIVER,"[…], time 14 day",15.2 g
same,LIVER,"[…], time 28 day",16.5 g
same,A/G,"[…], time 7 day",0.9
same,ALP,"[…], time 7 day",1744.2 IU/L
same,ALT,"[…], time 7 day",51.6 IU/L
same,AST,"[…], time 7 day",85.6 IU/L
same,BUN,"[…], time 7 day",15.8 mg/dL
same,CRE,"[…], time 7 day",0.2 mg/dL
same,Ca,"[…], time 7 day",10.8 mg/dL
same,Cl,"[…], time 7 day",103.4 meq/L
same,DBIL,"[…], time 7 day",0.01 mg/dL
same,GLC,"[…], time 7 day",192.6 mg/dL
same,IP,"[…], time 7 day",6.9 mg/dL
same,K,"[…], time 7 day",4.2 meq/L
same,LDH,"[…], time 7 day",92.4 IU/L
same,Na,"[…], time 7 day",144.2 meq/L
same,PL,"[…], time 7 day",159.8 mg/dL
same,RALB,"[…], time 7 day",2.6 g/dL
same,TBIL,"[…], time 7 day",0.04 mg/dL
same,TC,"[…], time 7 day",74.2 mg/dL
same,TG,"[…], time 7 day",138.2 mg/dL
same,TP,"[…], time 7 day",5.7 g/dL
same,gamma-GTP,"[…], time 7 day",1.2 IU/L
same,A/G,"[…], time 14 day",0.8
same,ALP,"[…], time 14 day",1516.8 IU/L
same,ALT,"[…], time 14 day",46.8 IU/L
same,AST,"[…], time 14 day",73.2 IU/L
same,BUN,"[…], time 14 day",16.4 mg/dL
same,CRE,"[…], time 14 day",0.2 mg/dL
same,Ca,"[…], time 14 day",10.7 mg/dL
same,Cl,"[…], time 14 day",102.6 meq/L
same,DBIL,"[…], time 14 day",0.004 mg/dL
same,GLC,"[…], time 14 day",180.6 mg/dL
same,IP,"[…], time 14 day",6.6 mg/dL
same,K,"[…], time 14 day",4.2 meq/L
same,LDH,"[…], time 14 day",116.4 IU/L
same,Na,"[…], time 14 day",144.2 meq/L
same,PL,"[…], time 14 day",154.4 mg/dL
same,RALB,"[…], time 14 day",2.7 g/dL
same,TBIL,"[…], time 14 day",0.032 mg/dL
same,TC,"[…], time 14 day",73.2 mg/dL
same,TG,"[…], time 14 day",138.8 mg/dL
same,TP,"[…], time 14 day",6.2 g/dL
same,gamma-GTP,"[…], time 14 day",1 IU/L
same,A/G,"[…], time 28 day",0.8
same,ALP,"[…], time 28 day",1150.5 IU/L
same,ALT,"[…], time 28 day",37.8 IU/L
same,AST,"[…], time 28 day",77.5 IU/L
same,BUN,"[…], time 28 day",16 mg/dL
same,CRE,"[…], time 28 day",0.3 mg/dL
same,Ca,"[…], time 28 day",10.4 mg/dL
same,Cl,"[…], time 28 day",101.8 meq/L
same,DBIL,"[…], time 28 day",0.005 mg/dL
same,GLC,"[…], time 28 day",170.8 mg/dL
same,IP,"[…], time 28 day",5.5 mg/dL
same,K,"[…], time 28 day",4.1 meq/L
same,LDH,"[…], time 28 day",77.2 IU/L
same,Na,"[…], time 28 day",143 meq/L
same,PL,"[…], time 28 day",161 mg/dL
same,RALB,"[…], time 28 day",2.7 g/dL
same,TBIL,"[…], time 28 day",0.0325 mg/dL
same,TC,"[…], time 28 day",76.8 mg/dL
same,TG,"[…], time 28 day",146.8 mg/dL
same,TP,"[…], time 28 day",6.2 g/dL
same,gamma-GTP,"[…], time 28 day",1.2 IU/L
